For series [1], the system named is Rattus norvegicus. The series is described as follows: Antiarthritic activity in rat assessed as inhibition of antigen-induced paw swelling at 100 mg/kg, po BID. The series is classed as functional, organism-based. Further details: dose 100 mg/kg.
Series [2] concerns Rattus norvegicus. The series can be described thus: Toxicity in antigen-induced arthritic rat model assessed as body weight reduction at 100 mg/kg, po BID. The series is classed as organism-based. Further details: dose 100 mg/kg, route oral. The note with it: in vivo.
A short description of series [3]: Plasma concentration in antigen-induced arthritic rat model at 100 mg/kg, po BID measured 2 hrs post last dose. The series is classed as ADME, organism-based. The arrangement: dose 100 mg/kg, route oral.
The subject of series [4] is Mus musculus. The series can be described thus: Antiarthritic activity in DBA/1 mouse assessed as inhibition of collagen-induced paw swelling at 100 mg/kg, po BID. The arrangement: dose 100 mg/kg. It counts as functional, organism-based.
Series [5] relates to Mus musculus. The series can be described thus: Antiarthritic activity in DBA/1 mouse assessed as inhibition of collagen-induced joint erosion at 100 mg/kg, po BID. It counts as functional, organism-based. Further details: dose 100 mg/kg.
The species named for series [6] is Mus musculus. The series is described as follows: animal or person. As to conditions: OF1, po, 1 h, read-out: INH.
Description: Inhibition of LPS-induced TNFalpha production in OF1 mouse at 100 mg/kg, po after 1 hr by ELISA
Series [7] can be described thus: Plasma concentration in antigen-induced arthritic rat model at 100 mg/kg, po BID measured 16 hrs post last dose. The arrangement: dose 100 mg/kg, route oral. The series is classed as ADME, organism-based.
A short description of series [8]: Cmax in rat at 1 mg/kg, po. It counts as ADME, organism-based. The arrangement: dose 1 mg/kg, route oral. As to conditions: in vivo.
The nature of series [9]: Plasma concentration in collagen-induced arthritic DBA/1 mouse model at 100 mg/kg, po BID measured 6 hrs post last dose. It counts as ADME, organism-based. Further details: dose 100 mg/kg, route oral.
A further series deals with PBMC. The series can be described thus: cells. The note with it: Homo sapiens.
Series [10] relates to Mus musculus. The series is described as follows: Antiarthritic activity in DBA/1 mouse assessed as inhibition of collagen-induced joint damage at 100 mg/kg, po BID. It counts as functional, organism-based. Further details: dose 100 mg/kg.
A short description of series [11]: Thermodynamic solubility of the compound at pH 6.8. The note with it: buffer, read-out: Therm_solubility. The series is classed as physicochemical.
Series [12] is described as follows: Oral bioavailability in rat at 1 mg/kg. The series is classed as ADME, organism-based. As to conditions: in vivo.
Series [13] is described as follows: Half life in rat at 1 mg/kg, po. It counts as ADME, organism-based. Further details: dose 1 mg/kg, route oral. As to conditions: in vivo.
Series [14] relates to Mus musculus. The series is described as follows: Antiarthritic activity in DBA/1 mouse assessed as inhibition of collagen-induced proteoglycan loss at 100 mg/kg, po BID. It counts as functional, organism-based. Further details: dose 100 mg/kg.
In series [15] the test system is Mus musculus. The series can be described thus: Toxicity in collagen-induced arthritic DBA/1 mouse model assessed as body weight reduction at 100 mg/kg, po BID. It counts as organism-based. The arrangement: dose 100 mg/kg, route oral. The note with it: in vivo.
Series [16] can be described thus: Plasma concentration in collagen-induced arthritic DBA/1 mouse model at 100 mg/kg, po BID measured 2 hrs post last dose. It counts as ADME, organism-based. The arrangement: dose 100 mg/kg, route oral.
Series [17] has as its system Rattus norvegicus. The series is described as follows: Volume of distribution at steady state in rat at 1 mg/kg, po. The series is classed as ADME, organism-based. Further details: dose 1 mg/kg, route oral. As to conditions: in vivo.
A short description of series [18]: Plasma concentration in antigen-induced arthritic rat model at 100 mg/kg, po BID measured 6 hrs post last dose. It counts as ADME, organism-based. The arrangement: dose 100 mg/kg, route oral.
A short description of series [19]: Clearance in rat at 1 mg/kg, po. It counts as ADME, organism-based. The arrangement: dose 1 mg/kg, route oral. As to conditions: in vivo.
Series [20] relates to Mus musculus. The series is described as follows: Antiarthritic activity in DBA/1 mouse assessed as inhibition of collagen-induced inflammatory cell infiltration at 100 mg/kg, po BID. The series is classed as functional, organism-based. Further details: dose 100 mg/kg.
The subject of the next series is Plasma. The series can be described thus: Plasma concentration in OF1 mouse at 100 mg/kg, po. Further details: dose 100 mg/kg, route oral. The series is classed as ADME, organism-based. The note with it: in vivo.
Series [21] in a line: AUC in rat at 1 mg/kg, po. The series is classed as ADME, organism-based. Further details: dose 1 mg/kg, route oral. The note with it: plasma.

In brackets after ≈: the same amount, converted by molar mass. Activity calls are given as the source filed them. The calls are words filed in the database; no cut-off is given here.

Description for PBMC: Inhibition of LPS-induced TNFalpha production in human PBMC preincubated for 30 mins measured after 3 hrs of LPS stimulation

For `O=C1NC2(CC2)Cc2[nH]c3c(c21)CCc1cnc(-c2ccc(F)nc2)cc1-3`, the result with Rattus norvegicus [1], in the series with Mus musculus [4], in the series on Mus musculus [5], with Mus musculus [10], in the series with Mus musculus [14] and in the series on Mus musculus [20] was Active. Further, the Activity entry in the series on Rattus norvegicus [2] and with Mus musculus [15] was “Non-toxic” in each case. In addition, the concentration at 2 h in [3] was 11.7 µM; in series [16], 16 µM. For the same molecule, the inhibition in vivo at 100 mg/kg in the series filed under Mus musculus [6] was 96%. Also, the concentration at 16 h in series [7] stood at 0.5 µM. Also, the Cmax in series [8] turned out to be 0.105 µM. The concentration at 6 h in series [9] came out at 2.4 µM; in series [18] it was 9.8 µM. In the series on PBMC, this molecule registered a half-inhibitory concentration (IC50) of 300 nM. In addition, the solubility thermodynamic in series [11] is 9 µM (≈ 3.24 µg/mL). The bioavailability in series [12] amounted to 24%. In series [13], this molecule had a half-life of 1.3 h. This molecule showed a Vdss in the series with Rattus norvegicus [17] of 1.9 L/kg. Moreover, the CL/F in series [19] worked out at 12 mL/min/kg. The concentration in the series with Plasma was 30 µM. In series [21], this molecule showed an AUC of 2 µM·h.

In general, Cmax refers to the highest concentration seen after dosing. One may read the IC50 as the concentration that inhibits the measured activity by half. As a reminder, the bioavailability is dose-corrected exposure relative to a reference, in per cent. A higher bioavailability goes with much systemic uptake. In general, half-life refers to the time in which the quantity being followed falls by half. As a reminder, the CL/F is clearance divided by bioavailability, as obtained after extravascular dosing. For orientation: AUC means concentration integrated over time.

Values taken from ChEMBL document CHEMBL1799987, “In vivo and in vitro SAR of tetracyclic MAPKAP-K2 (MK2) inhibitors. Part II” (Bioorg Med Chem Lett, 2010).
